Experimental findings from publication PMC11469493, “Luteolin target HSPB1 regulates endothelial cell ferroptosis to protect against radiation vascular injury” (PLOS ONE, 2024) are described below.

Test [1] concerns the target T1, HSPB1 (Homo sapiens, UniProt P04792). As to the kind of experiment: SPR (Reichert 4SPR, immobilised HSPB1). The test is classed as binding. Further details: protein immobilised by EDC/NHS on dextran SPR chip. To be noted: read-out: affinity.
Test [2] concerns the target T1, HSPB1. As to the kind of experiment: DARTS with Western blot (protection from protease). Format: biochemical. To be noted: cell lysate, room temperature, 20 min with luteolin, protease digestion 15 min. The arrangement: endogenous protein in lysate, detected by Western blot after protease digestion (DARTS).

T1 sequence (P04792 whole entry): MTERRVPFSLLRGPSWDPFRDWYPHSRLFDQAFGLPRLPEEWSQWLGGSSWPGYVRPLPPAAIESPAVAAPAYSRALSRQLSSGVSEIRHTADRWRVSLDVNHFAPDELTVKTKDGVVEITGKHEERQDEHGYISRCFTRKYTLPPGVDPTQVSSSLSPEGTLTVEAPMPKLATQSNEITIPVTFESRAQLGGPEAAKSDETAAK

As for `O=c1cc(-c2ccc(O)c(O)c2)oc2cc(O)cc(O)c12` [luteolin], in test [1], the Kd turned out to be 23.7 µM. Further, the “DARTS with Western blot (protection from protease)” value in test [2] was “addition of luteolin under the same protease concentration conditions reduced the hydrolysis of HSPB1”.
